This is an account of results in ChEMBL document CHEMBL1795222, “Pyridazine-derived γ-secretase modulators” (Bioorg Med Chem Lett, 2011).

For orientation: bioavailability means the share of a dose that reaches the circulation, judged against a reference dose that is usually intravenous. For orientation: half-life means how long it takes for the measured level to halve. One may read the pIC50 as the negative decadic logarithm of the IC50, by convention in mol/L. A word on the IC50: it is the midpoint of a concentration-inhibition curve.

Calls of active or inactive are those of the source. No cut-off for these calls is given here.

Data set [1] can be described thus: Clearance in Sprague-Dawley rat blood at 1 mg/kg, iv and 2 mg/kg, po. The class given is ADME, organism-based.
A short description of data set [2]: Oral bioavailability in Sprague-Dawley rat at 2 mg/kg. The class given is ADME, organism-based. The following applies: in vivo.
Data set [3] in a line: Volume of distribution at steady state in Sprague-Dawley rat at 1 mg/kg, iv and 2 mg/kg, po. The following applies: in vivo, read-out: Vdss. The class given is ADME, organism-based.
The nature of data set [4]: Half life in Sprague-Dawley rat at 1 mg/kg, iv and 2 mg/kg, po. The settings on record: in vivo. It is filed as ADME, organism-based.
In data set [5] the test system is CV-1. Nature of the data set: Agonist activity at gamma-secretase expressed in african green monkey CV1 cells coexpressing Gal4 DNA-binding/transactivation domain assessed as increase of notch processing at 10 uM after 22 hrs by luciferase reporter assay. It is filed as cell-based.
Data set [6] deals with Gamma-secretase. Nature of the data set: Inhibition of gamma-secretase in human SHSY5Y cells expressing Swedish variant of APP K595N/M596L assessed as reduction of amyloid beta 40 formation after 16 hrs by ELISA. It is filed as cell-based. The settings on record: sh-sy5y. For orientation: ELISA stands for enzyme-linked immunosorbent assay.
The target of data set [7] is Gamma-secretase. The data set can be described thus: Inhibition of gamma-secretase in human SHSY5Y cells expressing Swedish variant of APP K595N/M596L assessed as reduction of amyloid beta 42 formation after 16 hrs by ELISA. It is filed as cell-based. The following applies: sh-sy5y.
Data set [8] can be described thus: Inhibition of gamma-secretase expressed in african green monkey CV1 cells coexpressing Gal4 DNA-binding/transactivation domain assessed as inhibition of notch processing after 22 hrs by luciferase reporter assay. It is filed as cell-based. The settings on record: CV-1, 22 h. On the technique in general: In a reporter assay the amount or activity of a reporter protein is the signal.

Data set [9] concerns the target T1, Gamma-secretase (Homo sapiens) (UniProt Q96BI3+Q9NZ42+Q8WW43+P49768+Q92542+P49810). Nature of the data set: Inhibition of gamma-secretase in human SHSY5Y cells expressing Swedish variant of APP K595N/M596L assessed as reduction of amyloid beta 42 level after 24 hrs by DELFIA. The class given is cell-based. The settings on record: SH-SY5Y.
Data set [10] concerns the target T1, Gamma-secretase (Homo sapiens). Nature of the data set: Inhibition of gamma-secretase in human SHSY5Y cells expressing Swedish variant of APP K595N/M596L assessed as reduction of amyloid beta 40 level after 24 hrs by DELFIA. It is filed as cell-based. The settings on record: SH-SY5Y.
Data set [11] has the same target. The data set can be described thus: Inhibition of gamma-secretase in human SHSY5Y cells expressing Swedish variant of APP K595N/M596L assessed as reduction of total amyloid beta level after 24 hrs by DELFIA. It is filed as cell-based. The following applies: SH-SY5Y.
A short description of data set [12]: Drug level in rat brain at 30 mg/kg, po after 6 hrs. The class given is ADME, organism-based. The arrangement: dose 30 mg/kg, route oral. The settings on record: read-out: Drug uptake.
The test system of data set [13] is Rattus norvegicus. The data set can be described thus: Antialzheimer activity in rat assessed as reduction of amyloid beta 42 level in brain at 30 mg/kg, po after 6 hrs. The arrangement: scale not given: the % may be the effect or the level left. It is filed as functional.
Data set [14] is described as follows: Drug level in rat blood at 30 mg/kg, po after 6 hrs. The following applies: read-out: Drug uptake. The class given is ADME, organism-based. Further details: dose 30 mg/kg, route oral.
Data set [15] is described as follows: Ratio of drug level in brain to blood in rat at 30 mg/kg, po after 6 hrs. It is filed as ADME, organism-based. Further details: dose 30 mg/kg, route oral. The following applies: read-out: BBR.
Data set [16] deals with SH-SY5Y. Nature of the data set: Cytotoxicity against human SH-SY5Y cells assessed as effect of cell viability at 100 uM after 24 hrs by WST1 assay. It is filed as cell-based.

Regarding `COc1cc(-c2cc(C)c(N[C@@H](C)c3ccc(F)cc3)nn2)ccc1-n1cnc(C)c1.Cl`, the clearance in data set [1] stood at 5.1 mL/min/kg. The compound also came in with a bioavailability in [2] of 98%. Further, the Vd in data set [3] is 1.4 L/kg. Besides, the half-life in [4] was 3.1 h.

For `COc1cc(-c2cc(C(C)C)c(N[C@@H](C)c3ccc(F)cc3)nn2)ccc1-n1cnc(C)c1`, the Activity in data set [5] is above 30%. The pIC50 is on record as 7 in [6] and 7.3 in [7].

Consider `COc1cc(-c2nnc(N[C@@H](C)c3ccc(F)cc3)c(C)c2C)ccc1-n1cnc(C)c1`, for which, in [8], the IC50 is above 20 µM. Also, the negative-log IC50 (pIC50) was 5.9 in data set [6] and 6.5 in [7].

For `COc1cc(-c2ccc(NC(C)(C)c3ccc(F)cc3)nn2)ccc1-n1cnc(C)c1`, in data set [5], the Activity is above 30%. Also, the negative logarithm of the IC50 (pIC50) in data set [6] came to 6.1; in [7], 7.

Regarding `COc1cc(-c2ccc(N[C@@H](C)c3ccc(F)cc3)nn2)ccc1-n1cnc(C)c1`, the 50% inhibitory concentration (IC50) in data set [8] was above 20 µM. Moreover, the pIC50 in [6] stood at 6.7; in data set [7] it was 7.2.

In the case of `COc1cc(-c2nnc(N[C@@H](C)c3ccc(F)cc3)cc2C)ccc1-n1cnc(C)c1`, in [8], the IC50 is 15.8 µM. Moreover, the negative-log IC50 (pIC50) is 6.3 in data set [6] and 6.7 in data set [7].

As to `CC[C@H](Nc1ccc(-c2ccc(-n3cnc(C)c3)c(OC)c2)nn1)c1ccc(F)cc1`, the IC50 in [8] was 10 µM. In addition, the negative-log IC50 (pIC50) in [6] came out at 6.9; in data set [7] it was 7.3.

`COc1cc(-c2cc(C#N)c(N[C@@H](C)c3ccc(F)cc3)nn2)ccc1-n1cnc(C)c1`: the IC50 in [8] was 15.8 µM. For the same compound, the pIC50 came out at 5.8 in [6] and 6.9 in data set [7].

For the compound `COc1cc(-c2cc(C(F)(F)F)c(N[C@@H](C)c3ccc(F)cc3)nn2)ccc1-n1cnc(C)c1`, the Activity in data set [5] was above 30%. For the same compound, the pIC50 in [6] was found to be 5.6; in data set [7], 7.

For the compound `COc1cc(-c2ccc(N[C@H](c3ccc(F)cc3)C(C)(C)O)nn2)ccc1-n1cnc(C)c1`, in data set [8], the IC50 was 20 µM. Moreover, the pIC50 in data set [6] was 6.8; in [7], 7.4.

`COc1cc(-c2cc(C)c(N[C@@H](C)c3ccc(F)cc3)nn2)ccc1-n1cnc(C)c1` [listing 1 of 2 here]: the inhibition result in data set [9] and in data set [10] was “Dose-dependent effect” throughout. The inhibition result in [11] is “Active”.

As for `COc1cc(-c2ccc(N[C@@H](C)c3cccc(F)c3)nn2)ccc1-n1cnc(C)c1`, the IC50 in [8] is above 20 µM. The figures for the pIC50 in [6] and in [7] were 6.9 and 7.2, respectively.

For the compound `COc1cc(-c2ccc(NC(=O)c3ccc(F)cc3)nn2)ccc1-n1cnc(C)c1`, in data set [8], the IC50 is 1 µM. The figures for the pIC50 in [6] and in [7] were 4.7 and 5.6, respectively.

With `COc1cc(-c2ccc(N[C@@H](C)c3ccc(C(F)(F)F)cc3)nn2)ccc1-n1cnc(C)c1`, the IC50 in data set [8] was above 20 µM. The pIC50 was determined as 6.9 in data set [6] and 7.3 in data set [7].

As to `COc1cc(-c2ccc(NCc3ccc(F)cc3)nn2)ccc1-n1cnc(C)c1`, the IC50 in data set [8] is above 20 µM. The pIC50 in data set [6] worked out at 6.2; in data set [7], 6.5.

Turning to `COC[C@H](Nc1ccc(-c2ccc(-n3cnc(C)c3)c(OC)c2)nn1)c1ccccc1`, in [8], the IC50 is above 20 µM. Besides, the pIC50 in data set [6] was found to be 6.5; in data set [7], 6.8.

On to `COc1ccc([C@H](C)Nc2ccc(-c3ccc(-n4cnc(C)c4)c(OC)c3)nn2)cc1`, for which the IC50 in [8] was above 20 µM. The pIC50 in data set [6] and in [7] was 6.8 each time.

`COc1cc(-c2ccc(N[C@@H](C)c3ccccc3)nn2)ccc1-n1cnc(C)c1`: the IC50 in data set [8] is above 20 µM. Moreover, the pIC50 in data set [6] is 6.8; in data set [7] it was 7.1.

On to `COc1cc(-c2ccc(N[C@H](C)c3ccc(F)cc3)nn2)ccc1-n1cnc(C)c1`, for which the IC50 in data set [8] is above 20 µM. Moreover, the values for the pIC50 in data set [6] and in [7] were 6 and 6.2, respectively.

As for `CCc1cc(-c2ccc(-n3cnc(C)c3)c(OC)c2)nnc1N[C@@H](C)c1ccc(F)cc1`, in data set [5], the Activity was above 30%. For the same compound, the pIC50 is given as 6.8 in data set [6] and 7.2 in [7].

As for `COc1cc(-c2cc(C)c(N[C@@H](C)c3ccc(F)cc3)nn2)ccc1-n1cnc(C)c1` [listing 2 of 2 here], the concentration at 6 h was 9.09 µM in data set [12] and 16 µM in data set [14]. Also, the IC50 in data set [8] is 10 µM. Besides, the Activity in [13] is on record as above 20%; in data set [16], “Toxic”. For the same compound, the pIC50 in [6] was 6.7; in data set [7], 7.2. Moreover, the Kp at 6 h in data set [15] was 0.56.

Consider `COc1cc(-c2ccc(N[C@@H](C)c3ccccc3F)nn2)ccc1-n1cnc(C)c1`, for which the IC50 in data set [8] is 10 µM. Besides, the pIC50 in data set [6] is 7.1; in [7], 7.3.
